In paper PMC12476894, “Identification of α‑Azacyclic Acetamide-Based Inhibitors of P. falciparum Na^+ Pump (PfATP4) with Fast-Killing Asexual Blood-Stage Antimalarial Activity by Phenotypic Screening” (ACS Infectious Diseases, 2025):
Where two headings read alike, the source gives them in different places.

Legend:
[1] = tested on: P. falciparum NF54^luc parasites; assay: Luciferase reporter (LR) / BRRoK assay, PfNF54^luc; assay type: cell-based; conditions: Plasmodium falciparum, NF54, Hec50, 72 h
[2] = tested on: P. falciparum NF54^luc parasites; assay: 72 h SYBR Green growth inhibition, PfNF54^luc; assay type: cell-based; conditions: Plasmodium falciparum
[3] = tested on: P. falciparum NF54^luc parasites; assay: Luciferase reporter (LR) / BRRoK assay, PfNF54^luc; assay type: cell-based, Plasmodium falciparum; conditions: for EC50: Plasmodium falciparum, NF54, Hec50, luciferase reporter
[4] = tested on: Pf3D7 trophozoites, pHcyt (PfATP4 and other plasma membrane transporters); design: method as in previous study; conditions: all conditions, versus solvent control 0.1% DMSO; ref previous study; cited from earlier work
[5] = tested on: Dd2-B2 (PfATP4^WT); assay: Drug susceptibility assay for cross-resistance profiling (Fidock Lab), parental line; assay type: cell-based, Plasmodium falciparum; conditions: for EC50: Plasmodium falciparum
[6] = tested on: Dd2^L350H (PfATP4^L350H); assay: Drug susceptibility assay for cross-resistance profiling (Fidock Lab), L350H; assay type: cell-based, Plasmodium falciparum; conditions: Table 3 data set
[7] = tested on: Dd2^P412L (PfATP4^P412L); assay: Drug susceptibility assay for cross-resistance profiling (Fidock Lab), P412L; assay type: cell-based, Plasmodium falciparum; conditions: Table 3 data set
[8] = tested on: P. falciparum Dd2 (PfDd2) parasites; assay: 72 h SYBR Green growth inhibition, ABS P. falciparum Dd2 (Phillips Lab); assay type: cell-based, Plasmodium falciparum; conditions: read-out: PfDd2 EC50
[9] = tested on: Dd2 PfATP4^F917L mutant clones; assay: 72 h SYBR Green growth inhibition, 2- or 3-selected Dd2 clones with PfATP4 F917L (Phillips Lab); assay type: cell-based, Plasmodium falciparum
Protocol: (§1) To confirm the MOA for the α-azacyclic acetamides against P. falciparum and to obtain potential information about whether or not they bind PfATP4 at an overlapping site with that of KAE609, we undertook resistance selections using PfDd2 parasites using the published cycling drug selection method. , α-Azacyclic acetamides 2 and 3 were chosen as representative examples of the pyrrole- and indole-based series, respectively. […] Additional cycles were performed at 20 × EC50, until resistant parasites were detected based on a fold change in EC50 compared to the parental clonal Dd2 line (Table S3). Resistant parasites were detected in the 2-selections in all 4 flasks after 4 pulses and for 3-selections in 3 flasks after 5 pulses. Clonal lines were generated from each flask, and one clone per flask was selected for WGS and EC50 determination (Tables S4 and S5). WGS analysis identified two single point mutations in PfATP4 that were not present in the original clonal Dd2 parasite line (Tables and S4). P412L was found in three of four flasks containing 2-selected resistance clones, and F917L was identified in all three flasks containing 3-selected clones and in the fourth flask containing 2-selected clones (Table S4). PfATP4 mutations identified by the WGS analysis in parasite lines were verified by PCR of the pfatp4 gene, followed by Sanger sequencing (Figures S5, S6 and Table S6). An additional protein coding gene (ribosomal protein S8e) was mutated in the 2-selections. However, this mutation was identified in only one of four sequenced clones and is therefore unlikely to be related to resistance to 2 (Figure S7). All three resistant clones derived from the 3-selections harbored an identical mutation in a gene (pfcpu) encoding a conserved protein of unknown function, which was absent in the parental line (Figure S8).
(§2) ABS P. falciparum 3D7, Dd2 or PfNF54^luc parasites (BEI resources) were cultured in RPMI 1640 medium (Millipore Sigma), supplemented with 25 mM HEPES, 0.5% Albumax-I (Thermo Scientific), 23 mM sodium bicarbonate, 92 μM hypoxanthine, and 10 μg/mL gentamicin sulfate at 37 °C, 5% CO2, using deidentified O^+ red blood cells (BioIVT) as previously described. − Growth inhibition assays were conducted in 96 well plate format using the SYBR Green or luciferase reporter assay depending on the strain with modifications as described , (see Supporting Information for a detailed description). Details for the luciferase reporter assay are described below under the BRRoK assay section.
(§3) EC50 and CC50 values were determined by nonlinear regression performed in GraphPad Prism Version 10. Unless otherwise specified, data were fitted to the log(inhibitor) vs response–variable slope with four parameters equation. […] For mutant cell lines and compound combinations where bottom plateau of zero growth was not reached, the bottom of the curve was defined at 0% based on background values obtained for parental Dd2 from the same study.
(§4) Resistant Dd2 parasites were selected using a high-pressure intermittent selection protocol using a previously described method. Selections were set up using 4 flasks per compound starting with approximately 3 × 10^9 parasites per flask (80 mL per flask, 4% hematocrit, 3% parasitemia at the beginning of each pulse, mostly ring-stage parasites via previous sorbitol synchronization. Pulse 1 and 2 (48 h) were conducted at 10xEC50, and subsequent pulses were conducted at 20xEC50. Parasites cleared within 48 h under these conditions. 3-Selections used a total of 4 pulses, while 2-selections required 5 pulses before resistant parasites emerged (Table S3). Culture media was replenished daily for a week after each pulse, then every 2 days with weekly replenishment of blood. Cultures were monitored by microscopy until recrudescence. Clonal parasites were obtained from each flask by limiting dilution and maintained in drug free RPMI-1640 media prior to being analyzed for EC50 shifts. […]

[10] = tested on: Pf3D7 trophozoite-stage parasites, cytosolic pH (pHcyt); cell-based assay for ATP4 inhibition; assay: P. falciparum cytosolic dose response pH assay (BCECF, with concanamycin A)
[11] = tested on: P. falciparum 3D7 parasites (Pf3D7); assay: 72 h SYBR Green growth inhibition, ABS P. falciparum 3D7 (Phillips Lab); assay type: cell-based, Plasmodium falciparum; conditions: for EC50: 72 h SYBR Green assay, mean ± SEM (n); for reduction of activity relative to 2 / activity of analogs relative to parent 2 or 3 (in words): P. falciparum 3D7 and Dd2 parasites; for reduction of activity relative to 2: analogs of 2
[12] = tested on: PfD10 attB; assay: 72 h SYBR Green growth inhibition, PfD10 attB; assay type: cell-based; conditions: Plasmodium falciparum; 72 h SYBR Green assay
[13] = tested on: Dd2 PfATP4^P412L mutant clones; assay: 72 h SYBR Green growth inhibition, 2-selected Dd2 clones with PfATP4 P412L (Phillips Lab); assay type: cell-based, Plasmodium falciparum
Protocol: as §1, §2, §3, §4

[14] = 72 h SYBR Green assay, read-out: PfNF54^luc EC50
[15] = Plasmodium falciparum, DD2, 15-selected line
[16] = Plasmodium falciparum, DD2, 72 h
[17] = 72 h SYBR Green assay, mean ± SEM (n)

Compound: C[C@@H]1CC[C@H]2[C@@H](C)C(=O)O[C@@H]3O[C@@]4(C)CC[C@@H]1[C@]32OO4 [ART, artemisinin, reference compound]
- EC50 [1]: 4 nM
- EC50 [2, 14]: 10 nM
- EC50 ([2]; 72 h SYBR Green, as listed in supplementary methods, read-out: EC50 values used for BRRoK concentration range (72h SYBR Green assay vs PfNF54luc)): 9.7 nM
- EC50 ([3]; 6 h): 80 nM
- 6 h EC50 relative to 72 h SYBR Green and LR EC50 ([3]; higher at 6 h): 10–20 fold

Compound: C[C@H]1[C@@H](O)O[C@@H]2O[C@@]3(C)CC[C@H]4[C@H](C)CC[C@@H]1[C@@]24OO3 [DHA, dihydroartemisinin, reference compound]
- pH fingerprint traces (in words) [4]: overlapped with those of the solvent control
- EC50 ([5]; DD2, 72 h, read-out: EC50, Dd2-B2): 2 ± 0.09 nM
- EC50 [6, 15]: 2.4 ± 0.23 nM
- EC50 fold-change vs Dd2-B2, Dd2^L350H [6]: 1.2 fold
- EC50 [7, 15]: 2.7 ± 0.15 nM
- EC50 fold-change vs Dd2-B2, Dd2^P412L [7]: 1.4 fold

Compound: Cc1cc(Nc2ccc(S(F)(F)(F)(F)F)cc2)n2nc(C(C)(F)F)nc2n1 [DSM265, reference compound]
- EC50 [8, 16]: 0.0086 ± 0.00036 µM
- EC50 [1]: 6.8 ± 0.69 nM
- EC50 ([9]; Plasmodium falciparum, DD2, read-out: EC50, 3-selected flask #3 clone D8): 7.3 ± 0.13 nM
- Fold EC50 change compared to WT Dd2, 3-selected flask #3 clone D8 ([9]; {}): 0.85 fold
- EC50 [2, 14]: 8.6 ± 0.3 nM
- effect on parasite cytosolic pH (pHcyt) in presence of CMA (in words) ([10]; Pf3D7, CMA 50 nM): no impact on pH
- EC50 ([10]; Plasmodium falciparum, read-out: Pf3D7 pH EC50): > 400 nM
- EC50 ([11]; Plasmodium falciparum, 3D7): 0.0066 ± 0.00036 µM
- BRRoK assay, luciferase activity after 6 h treatment (kill rate, in words) ([3]; 6 h, 47x to 0.04x EC50): did not reduce parasite levels in the 6 h treatment window
- EC50 ([3]; 6 h): > 240 nM
- EC50 [12]: 12 nM
- EC50 ([13]; Plasmodium falciparum, DD2, read-out: EC50, 2-selected flask #3 clone F5): 8.5 ± 1.4 nM
- Fold EC50 change compared to WT Dd2, 2-selected flask #3 clone F5 ([13]; {}): 0.99 fold

Compound: N#Cc1cc(NC(=O)[C@H]2c3ccccc3C(=O)N(CC(F)(F)F)[C@@H]2c2cccnc2)ccc1F [SJ733]
- EC50 ([5]; DD2, read-out: EC50, Dd2-B2): 130 nM
- Fold change, Dd2-B2 ([5]; parent, Table S8): 1 fold

Compound: O=C1C(O)=C([C@H]2CC[C@H](c3ccc(Cl)cc3)CC2)C(=O)c2ccccc21 [atovaquone]
- pH fingerprint traces (in words) [4]: overlapped with those of the solvent control

Compound: CCN(CC)CCCC(C)Nc1ccnc2cc(Cl)ccc12 (stereo not shown) [chloroquine]
- pH fingerprint traces (in words) [4]: overlapped with those of the solvent control

Compound: Cc1ccc(NC(=O)Cn2cccc2-c2nc(-c3ccccc3)cs2)nc1 [compound 5, N-(5-methylpyridin-2-yl)-2-[2-(4-phenyl-1,3-thiazol-2-yl)-1H-pyrrol-1-yl]acetamide]
- EC50 [8, 17]: 9.6 ± 0.44 µM
- EC50 [11]: 10 ± 0.03 µM
- reduction of activity relative to 2 [11]: 10–20 fold

Compound: Cc1cccc(NC(=O)Cn2cccc2-c2nc(-c3ccccc3)cs2)n1 [compound 6, N-(6-methylpyridin-2-yl)-2-[2-(4-phenyl-1,3-thiazol-2-yl)-1H-pyrrol-1-yl]acetamide]
- EC50 [8, 17]: 12 ± 1.1 µM
- EC50 [11]: 15 ± 0.87 µM
- reduction of activity relative to 2 [11]: 10–20 fold

Compound: Cc1ccnc(NC(=O)Cn2cccc2-c2nc(-c3ccc(Cl)cc3)cs2)c1 [compound 7, 2-(2-(4-(4-chlorophenyl)-1,3-thiazol-2-yl)-1H-pyrrol-1-yl}-N-(4-methylpyridin-2-yl)acetamide]
- EC50 [8, 17]: 14 ± 0.58 µM
- EC50 [11]: 15 ± 2.4 µM
- reduction of activity relative to 2 [11]: 10–20 fold

Compound: Cc1cccnc1NC(=O)Cn1cccc1-c1nc(-c2ccc(Cl)cc2)cs1 [compound 8, 2-(2-(4-(4-chlorophenyl)-1,3-thiazol-2-yl)-1H-pyrrol-1-yl)-N-(3-methylpyridin-2-yl)acetamide]
- EC50 [8, 17]: > 30 µM
- EC50 [11]: > 30 µM
- activity of analogs relative to parent 2 or 3 (in words) [11]: complete loss of activity

Compound: Cc1cccc(NC(=O)Cn2cccc2-c2nc(-c3ccccc3)cs2)c1 [compound 9, N-(3-methylphenyl)-2-[2-(4-phenyl-1,3-thiazol-2-yl)-1H-pyrrol-1-yl]acetamide]
- EC50 [8, 16]: 1.7 ± 0.038 µM
- reduction of activity relative to 2 [11]: 2 fold
- EC50 ([11]; Plasmodium falciparum, 3D7): 2.8 ± 0.17 µM

Compound: O=C(Cn1cccc1-c1nc(-c2ccccc2)cs1)Nc1cccc(Cl)c1 [compound 10, N-(3-chlorophenyl)-2-[2-(4-phenyl-1,3-thiazol-2-yl)-1H-pyrrol-1-yl]acetamide]
- EC50 [8, 17]: 0.98 ± 0.082 µM
- EC50 [11]: 1.6 ± 0.33 µM
- activity of analogs relative to parent 2 or 3 (in words) [11]: activity was restored

Compound: O=C(Cn1cccc1-c1nc(-c2ccc(Cl)cc2)cs1)N1CCc2ccccc21 [compound 11, 2-(2-(4-(4-chlorophenyl)-1,3-thiazol-2-yl)-1H-pyrrol-1-yl)-1-(2,3-dihydro-1H-indol-1-yl)ethan-1-one]
- EC50 [8, 17]: > 30 µM
- EC50 [11]: > 30 µM
- activity of analogs relative to parent 2 or 3 (in words) [11]: complete loss of activity

Compound: CC(=O)c1cn(C(C)C(=O)NCCn2nc(C)c(Cl)c2C)c2ccccc12 (stereo not shown) [compound 12, 2-(3-acetyl-1H-indol-1-yl)-N-[2-(4-chloro-3,5-dimethyl-1H-pyrazol-1-yl)ethyl]propenamide]
- EC50 [8, 17]: > 30 µM
- EC50 [11]: > 30 µM
- activity of analogs relative to parent 2 or 3 (in words) [11]: loss of activity

Compound: O=C(Cn1ccc2ccccc21)NCCn1cccn1 [compound 13, 2-(1H-indol-1-yl)-N-[2-(1H-pyrazol-1-yl)ethyl]acetamide]
- EC50 [8, 17]: > 30 µM
- EC50 [11]: > 30 µM
- activity of analogs relative to parent 2 or 3 (in words) [11]: loss of activity

Compound: Cc1cc(N)n(CC(=O)NCCn2c(C)cc3ccccc32)n1 [compound 14, 2-(5-amino-3-methyl-1H-pyrazol-1-yl)-N-[2-(2-methyl-1H-indol-1-yl)ethyl]acetamide]
- EC50 [8, 17]: > 30 µM
- EC50 [11]: > 30 µM
- activity of analogs relative to parent 2 or 3 (in words) [11]: loss of activity
